{"source": "patent US8759352B2", "about": "“1-(4-ureidobenzoyl)piperazine derivatives” (Merck Sharp & Dohme B.V., priority 2008, dated 2014)", "origin": "cited, not measured here", "key": {"neointima formation": {"system": "neointima formation", "details": "in vitro and in vivo; Blaschke et al. 2004"}, "β-amyloid": {"system": "β-amyloid", "details": "Riddell et al. 2007"}, "tumours": {"system": "tumours", "details": "animal model of prostate cancer; Chuu et al. 2006"}, "[1]": {"system": "vascular smooth muscle cell", "details": "in vitro and in vivo; Blaschke et al. 2004"}}}
{"smiles": "O=S(=O)(c1ccccc1)N(CC(F)(F)F)c1ccc(C(O)(C(F)(F)F)C(F)(F)F)cc1", "note": "[Example T0901317]", "values": [{"measurement": "neointima formation following balloon injury", "setting": "neointima formation", "value": "inhibit"}, {"measurement": "deposition of β-amyloid", "setting": "β-amyloid", "value": "lower deposition of β-amyloid"}, {"measurement": "memory", "setting": "β-amyloid", "value": "improve memory"}, {"measurement": "progression of tumours", "setting": "tumours", "value": "delayed progression of tumours"}, {"measurement": "vascular smooth muscle cell proliferation", "setting": "[1]", "value": "inhibit"}]}
